Experimental findings from ChEMBL document CHEMBL1131733, “Dual-acting agents with alpha1-adrenoceptor antagonistic and steroid 5alpha-reductase inhibitory activities. Synthesis and evaluation of arylpiperazine derivatives” (Bioorg Med Chem Lett, 1999) are described below.

One may read the IC50 as the concentration that gives 50% inhibition. The low end stands for higher potency, the high end for lower potency. The pA2 is a measure of antagonist potency on a negative log scale. The term ED50 denotes the dose at which the effect has come halfway, by size or by number of responders. Low readings indicate an effect at a small dose, high ones a need for a large dose.

Assay [1] concerns the target T1, Steroid 5-alpha-reductase (Rattus norvegicus, UniProt P24008+P31214).
T1 sequence (P24008 whole entry): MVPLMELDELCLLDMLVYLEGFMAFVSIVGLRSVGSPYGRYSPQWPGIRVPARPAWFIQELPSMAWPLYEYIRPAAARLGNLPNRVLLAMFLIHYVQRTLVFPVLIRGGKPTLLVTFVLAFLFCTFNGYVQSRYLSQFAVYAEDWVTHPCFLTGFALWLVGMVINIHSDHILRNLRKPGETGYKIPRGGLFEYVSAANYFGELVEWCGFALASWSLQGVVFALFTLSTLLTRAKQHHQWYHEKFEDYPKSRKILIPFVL
T1 sequence (P31214 whole entry): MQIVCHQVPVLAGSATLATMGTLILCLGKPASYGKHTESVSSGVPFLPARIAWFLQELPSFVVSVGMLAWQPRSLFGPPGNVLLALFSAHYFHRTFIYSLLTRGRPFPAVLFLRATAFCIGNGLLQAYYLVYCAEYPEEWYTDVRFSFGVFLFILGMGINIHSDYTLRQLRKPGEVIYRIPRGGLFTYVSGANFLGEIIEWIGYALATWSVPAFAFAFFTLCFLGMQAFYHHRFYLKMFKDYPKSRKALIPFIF
The experiment in a line: Inhibition of Steroid 5-alpha-reductase from Dawley rat prostate. It is filed as tissue-based, Prostate gland.

A short description of assay [2]: Antagonistic Alpha-1 adrenergic receptor activity against phenylephrine-induced contraction of rabbit prostate. The assay is classed as functional, Oryctolagus cuniculus.
A further assay has as its system Oryctolagus cuniculus. The experiment in a line: Dose required to inhibit increase in urethral pressure induced by phenylephrine in anesthetized rabbits by iv administration. The assay is classed as functional.
The target in assay [3] is Steroid 5-alpha-reductase (Rattus norvegicus) (UniProt P24008+P31214). The assay can be described thus: Inhibitory effect on prostatic Steroid 5-alpha-reductase, 2 hours after oral administration.

`COc1ccccc1N1CCN(CCOc2cc(C(=O)c3cn(CCCC(=O)O)c4ccccc34)ccc2OCc2ccc(C)cc2)CC1`: in assay [1], the IC50 worked out at 4.8 nM. In addition, the pA2 in assay [2] is listed as 6.8. In assay [1], `COc1ccccc1N1CCN(CCC(Oc2ccc(C(=O)Nc3ccccc3OCCCC(=O)O)cc2)c2ccccc2)CC1` (centres undefined) came in with an IC50 of 920 nM. For the same molecule, in assay [2], the pA2 is 7.6. The matching figures for `CCCOc1ccccc1N1CCN(CCCOc2cc(C(=O)c3cn(CCCC(=O)O)c4ccccc34)ccc2OCc2ccc(C)cc2)CC1`: 3 nM and 6.8. On the same counts, the results for `COc1ccccc1N1CCN(CCCCOc2cc(C(=O)c3cn(CCCC(=O)O)c4ccccc34)ccc2OCc2ccc(C)cc2)CC1` are 1.5 nM and 6.7. On the same counts, the results for `COc1ccccc1N1CCN(CCCOc2ccc(C(=O)Nc3ccccc3OCCCC(=O)O)cc2OCc2ccccc2)CC1` are 3500 nM and 7.2. On to `CCc1ccc(COc2ccc(C(=O)c3cn(CCCC(=O)O)c4ccccc34)cc2OCCCN2CCN(c3ccccc3OC)CC2)cc1`, for which the IC50 in assay [1] is 4 nM. For the same molecule, the pA2 in assay [2] is on record as 6.6. On the same counts, the results for `COc1ccccc1N1CCN(CCCOc2cc(C(=O)c3cn(CCCC(=O)O)c4ccccc34)ccc2OCc2ccc(C)cc2)CC1` are 3.5 nM and 7.7. The matching figures for `COc1ccccc1N1CCN(CCCOc2ccc(C(=O)c3cn(CCCC(=O)O)c4ccccc34)cc2OCc2ccccc2)CC1`: 360 nM and 7. `COc1ccccc1N1CCN(CCC(Oc2ccc(C(=O)Nc3ccccc3OCCCC(=O)O)cc2)c2ccc(C)cc2)CC1` (centres undefined): the pA2 in assay [2] came out at 7.8.

In assay [1], `Cc1ccc(COc2ccc(C(=O)c3cn(CCCC(=O)O)c4ccccc34)cc2OCCCN2CCN(c3ccccc3OC(C)C)CC2)cc1` displayed an IC50 of 2.9 nM. This molecule showed a pA2 in assay [2] of 6.8. Regarding `COc1ccccc1N1CCN(CCCNc2cc(=O)n(C)c(=O)n2C)CC1`, the pA2 in assay [2] is 7.1. In assay [1], `CC(C)Cc1ccc(C(Nc2cccc(C(=O)c3cn(CCCC(=O)O)c4ccccc34)c2)c2ccc(CC(C)C)cc2)cc1` had an IC50 of 4.2 nM. Take `CCOc1ccccc1N1CCN(CCCOc2cc(C(=O)c3cn(CCCC(=O)O)c4ccccc34)ccc2OCc2ccc(C)cc2)CC1`: in the assay on Oryctolagus cuniculus, the Dose amounted to 0.3 mg/kg. In addition, in assay [1], the IC50 is given as 1.5 nM. Besides, the pA2 in assay [2] was 7.5. For the same molecule, in assay [3], the ED50 was 7.9 mg/kg.

For `COc1ccccc1N1CCN(CCCOc2cc(C(=O)Nc3ccccc3OCCCC(=O)O)ccc2OCc2ccccc2)CC1`, the IC50 in assay [1] is listed as 490 nM. The pA2 in assay [2] worked out at 8.

In turn, `COc1ccccc1N1CCN(CCCOc2cc(C(=O)c3cn(CCCC(=O)O)c4ccccc34)ccc2OCc2ccccc2)CC1` came in with an IC50 in assay [1] of 11 nM. Further, the pA2 in assay [2] came out at 7.8.
